Reference: patent US5506102A (priority 1993, dated 1996)

Legend:
PR-B = target: T1, PR-B (Homo sapiens, UniProt P06401); assay: PR-B transactivation of PRE2 tk-LUC; assay type: cell-based; details: CV-1, 10^-7 M progesterone, FIG. 4A
T1 sequence (P06401 1-933): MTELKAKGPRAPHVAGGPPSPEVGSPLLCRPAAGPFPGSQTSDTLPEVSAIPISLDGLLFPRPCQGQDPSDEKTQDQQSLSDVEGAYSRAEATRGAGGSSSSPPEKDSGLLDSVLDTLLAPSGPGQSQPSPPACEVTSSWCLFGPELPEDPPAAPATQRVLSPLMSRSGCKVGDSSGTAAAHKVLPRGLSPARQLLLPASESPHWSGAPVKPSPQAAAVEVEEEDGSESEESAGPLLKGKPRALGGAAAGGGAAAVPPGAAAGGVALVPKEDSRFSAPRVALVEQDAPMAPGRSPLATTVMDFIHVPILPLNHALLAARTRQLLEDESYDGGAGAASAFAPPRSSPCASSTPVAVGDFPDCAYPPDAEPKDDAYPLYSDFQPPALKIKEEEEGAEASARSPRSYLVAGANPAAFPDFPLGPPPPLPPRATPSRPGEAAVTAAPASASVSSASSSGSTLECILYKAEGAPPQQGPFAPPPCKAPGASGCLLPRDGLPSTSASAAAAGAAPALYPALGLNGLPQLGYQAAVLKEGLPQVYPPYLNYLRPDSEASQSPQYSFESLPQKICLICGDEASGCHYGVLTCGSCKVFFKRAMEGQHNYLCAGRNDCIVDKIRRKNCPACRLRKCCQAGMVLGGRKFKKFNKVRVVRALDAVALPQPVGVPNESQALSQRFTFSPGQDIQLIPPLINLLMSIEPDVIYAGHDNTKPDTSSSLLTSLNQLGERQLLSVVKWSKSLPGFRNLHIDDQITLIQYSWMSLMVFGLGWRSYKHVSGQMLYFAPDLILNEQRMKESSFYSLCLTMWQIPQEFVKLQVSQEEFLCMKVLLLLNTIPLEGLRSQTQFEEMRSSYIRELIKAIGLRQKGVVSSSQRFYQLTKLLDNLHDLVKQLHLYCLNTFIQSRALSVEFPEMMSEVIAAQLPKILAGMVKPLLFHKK
Method: FIGS. 4A-4B are a series of graphs showing CV-1 ([…]) or HepG2 (FIG. 4B) cells that were transiently transfected with either […] of phPR-B or phPR-A alone, or phPR-B in the presence of increasing concentrations of phPR-A, together with 5 µg/ml of the PRE2 tk-LUC reporter and 5 µg/ml of pCH110 as an internal control. HeLa cells (FIG. 4C) were transfected with either phPR-B or phPR-A together with 5 µg/ml of the pTAT2950 reporter and 5 µg/ml of pCH110 as an internal control. […] The relative luciferase activity is calculated by dividing the normalized luciferase value at a given point by that obtained in the absence of transfected receptor or ligand. The data shown represent the mean +/- average deviation from the mean of triplicate estimations;
Both reporter plasmids were digested with XhoI and HindIII restriction enzymes and a 6.7 Kb fragment from MMTV-LUC and a 0.12 Kb fragment from PRE2 tk-CAT were isolated and ligated, resulting in a plasmid called PRE2 tk-LUC.
Cells were seeded in 12-well, 96-well or 10 cm tissue culture plates. […] 20 μg of DNA/ml of transfection buffer were used in each transfection reaction. […]

[1] = test system: PR-B (co-expressed with PR-A587); assay: Repression of PR-B mediated MMTV-LUC transcription by DNA binding mutant PR-A587, CV-1 cells; assay type: cell-based, human; details: equimolar phPR-A587 and phPR-B DNA, 10^-7 M progesterone, FIG. 9
Method: The relative luciferase activity is calculated by dividing the normalized luciferase value at a given point by that obtained in the absence of transfected receptor or ligand.
Cells were seeded in 12-well, 96-well or 10 cm tissue culture plates. […] 20 μg of DNA/ml of transfection buffer were used in each transfection reaction. In this mix, the concentration of the luciferase plasmids and that of the internal control plasmid pCH110 (Pharmacia, Inc.), which contains the gene for the β-galactosidase enzyme, remained constant ([…] of each plasmid DNA), while the receptor plasmid concentration varied as indicated for each experiment. Different amounts of receptor parental plasmid, pSV2-neo (Dr. Bert O'Malley, Baylor College of Medicine, Houston, Tex.) was included to keep constant the total amount of the SV40 enhancer vectors. pGEM4 plasmid DNA (Promega Biotech, Madison, Wis.) was added to balance the total DNA concentration to 20 g/reaction. For the 96-well plate experiments, transfections were performed on a Biomek 1000 Automated Laboratory Workstation (Beckman Instruments, Fullerton, Calif.).
Cells were seeded 24 hours prior to transfection in the fiat-bottom tissue culture plates ([…]) in phenol red-free DMEM containing 10% FCS. […]

SMILES: CC(=O)[C@H]1CC[C@H]2[C@@H]3CCC4=CC(=O)CC[C@]4(C)[C@H]3CC[C@]12C [progesterone]
- PR-B transcriptional activity on PRE2 tk-LUC (PR-B): transcriptionally active
- reduction of transcriptional activity of PR-B [1]: 90%
